Experimental data from US20220378706A1, “PHARMACEUTICAL COMPOSITION COMPRISING PDE9 INHIBITOR” (Eisai R&D Management Co., Ltd., priority 2017, published 2022).

Tests used:
PDE9 = PDE9 (Homo sapiens, UniProt O76083); conditions: WO2013/051369, WO2014/163147; cited from earlier work
[1] = Single dose clinical study: safety assessments (adverse events); format: in vivo, human; conditions: for incidence of any TEAEs: Part B 100 mg Cohort
Text: Safety assessments consisted of monitoring and recording all adverse events (AEs) and serious adverse events (SAEs); laboratory evaluation for hematology, blood chemistry, and urine values; periodic measurement of vital signs (including orthostatic changes in blood pressure [BP] and heart rate [HR]) and electrocardiograms (ECGs); and the performance of physical examinations.
Safety data evaluated included AEs, clinical laboratory results, vital signs, and ECGs. Treatment emergent adverse events (TEAEs) were summarized by presenting the incidence of AEs for each cohort and dose group. For the laboratory, vital signs, and ECG data in all cohorts in any treatment period, the baseline was the values recorded immediately prior to dosing with study drug in that treatment period.

[2] = tested on: cGMP in the cerebrospinal fluid; experiment: CSF cGMP elevation in rats; format: in vivo; conditions: rat, scopolamine
Description: cGMP in the cerebrospinal fluid (hereinafter referred to as “CSF cGMP”) elevation in each sample was measured according to the method described in WO2013/051639.

Sequence of PDE9 (O76083 whole entry): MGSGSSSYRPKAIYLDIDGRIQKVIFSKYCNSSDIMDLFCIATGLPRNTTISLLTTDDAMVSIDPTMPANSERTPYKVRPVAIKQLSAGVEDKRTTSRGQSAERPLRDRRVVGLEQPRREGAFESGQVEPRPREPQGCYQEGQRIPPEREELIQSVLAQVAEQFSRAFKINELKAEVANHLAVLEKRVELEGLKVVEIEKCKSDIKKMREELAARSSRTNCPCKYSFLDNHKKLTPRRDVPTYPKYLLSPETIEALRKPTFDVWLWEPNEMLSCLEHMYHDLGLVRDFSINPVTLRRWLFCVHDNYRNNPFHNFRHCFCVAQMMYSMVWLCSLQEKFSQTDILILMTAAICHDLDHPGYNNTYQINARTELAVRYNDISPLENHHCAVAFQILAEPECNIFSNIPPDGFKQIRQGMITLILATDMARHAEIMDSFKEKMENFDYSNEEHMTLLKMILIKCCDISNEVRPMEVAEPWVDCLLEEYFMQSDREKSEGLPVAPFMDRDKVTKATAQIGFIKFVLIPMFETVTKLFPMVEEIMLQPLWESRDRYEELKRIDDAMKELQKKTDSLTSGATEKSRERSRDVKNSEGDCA

Question: With `COc1ncc(C)c(-c2ccc3c(c2)[nH]c(=O)c2cnn([C@H]4CCOC4)c23)c1C` [Compound A, (S)-7-(2-methoxy-3,5-dimethylpyridin-4-yl)-1-(tetrahydrofuran-3-yl)-1H-pyrazolo[4,3-c]quin olin-4(5H)-one] as the compound, how does the PDE9 inhibitory activity (PDE9) read?
Answer: known to have a PDE9 inhibitory activity

Question: And the tolerability ([1]; Part A healthy adult subjects, single oral doses 10 to 1200 mg)?
Answer: well tolerated

Question: And the TEAE back pain ([1]; Part B)?
Answer: 20.8%

Question: And the TEAE dizziness ([1]; Part B)?
Answer: 16.7%

Question: And the TEAE headache ([1]; Part B)?
Answer: 29.2%

Question: What about the TEAE musculoskeletal stiffness ([1]; Part B) of the same compound?
Answer: 20.8%

Question: And the TEAE nausea ([1]; Part B)?
Answer: 12.5%

Question: And the “TEAE pain in extremity” value ([1]; Part B)?
Answer: 8.3%

Question: What about the “TEAE post lumbar puncture syndrome” value ([1]; Part B) of the same compound?
Answer: 37.5%

Question: And the TEAE procedural nausea ([1]; Part B)?
Answer: 8.3%

Question: What about the TEAE procedural vomiting ([1]; Part B) of the same compound?
Answer: 8.3%

Question: And the TEAE vomiting ([1]; Part B)?
Answer: 20.8%

Question: What about the “incidence of any TEAEs” value ([1]; fasted state) of the same compound?
Answer: 66.7%

Question: And the “incidence of any TEAEs” value ([1]; fed state)?
Answer: 50%

Question: What about the tolerability ([1]; Part B healthy adults with serial CSF sampling, single oral doses 50 to 400 mg) of the same compound?
Answer: well tolerated

Question: What about the “subjects with at least 1 TEAE” value ([1]; Part B, both treatment periods, all doses) of the same compound?
Answer: 83.3%

Question: And the tolerability ([1]; Part C healthy elderly subjects, single dose 100 mg)?
Answer: well tolerated

Question: What about the “subjects with at least 1 TEAE” value ([1]; Part C healthy elderly, 100 mg) of the same compound?
Answer: 16.7%

Question: And the TEAE headache ([1]; Part D)?
Answer: 16.7%

Question: And the tolerability ([1]; Part D healthy Japanese adult subjects, single oral doses 25 to 400 mg)?
Answer: well tolerated

Question: And the “subjects with at least 1 TEAE” value ([1]; Part D, all doses)?
Answer: 38.9%

Question: And the TEAE dizziness ([1]; Parts A and C)?
Answer: 5.6%

Question: What about the TEAE headache ([1]; Parts A and C) of the same compound?
Answer: 11.6%

Question: And the “TEAE increase in orthostatic heart rate response” value ([1]; Parts A and C)?
Answer: 3.7%

Question: What about the TEAE insomnia ([1]; Parts A and C) of the same compound?
Answer: 5.6%

Question: And the TEAE paresthesia ([1]; Parts A and C)?
Answer: 3.7%

Question: What about the “TEAE postural orthostatic tachycardia” value ([1]; Parts A and C) of the same compound?
Answer: 5.6%

Question: What about the “deaths or SAEs” value ([1]; Parts A and C) of the same compound?
Answer: no deaths or SAEs

Question: And the “subjects with at least 1 TEAE” value ([1]; Parts A and C, all doses)?
Answer: 42.6%

Question: What about the maximum tolerated dose ([1]; single oral doses 10 to 1200 mg, healthy adults) of the same compound?
Answer: not reached

Question: What about the “% CSF cGMP increase from vehicle control” value ([2]; 3.3 mg/kg oral) of the same compound?
Answer: (90) %

Question: What about the “CSF cGMP conc.” value ([2]; 3.3 mg/kg oral) of the same compound?
Answer: 3.694 ± 0.65 nM

Question: What about the “% CSF cGMP increase from vehicle control” value ([2]; 10 mg/kg oral) of the same compound?
Answer: (152) %

Question: And the “CSF cGMP conc.” value ([2]; 10 mg/kg oral)?
Answer: 4.889 ± 0.538 nM
